Test results published in a melting point compilation (Tetko et al.; mined from patent text by program, amines drawn as free bases though some values may be those of a salt).

Row | Compound | melting point
1 | O=C(O)COc1ccc2cc(-c3oc4ccccc4c3C(=O)CC3CCCC3)ccc2c1 | 177 to 178 °C
2 | COc1cc2ncn(CCCCl)c(=O)c2cc1OC | 143 °C
3 | CCn1c(=N)c(-c2ccsc2)cc2cnc(Nc3ccccc3)nc21 | 220 to 222 °C
4 | CCCCOc1ccc(S(C)(=O)=O)cc1-c1nc2c(CC)n(C3CN(C(C)C)C3)nc2c(=O)[nH]1 | 209 to 213 °C
5 | c1ccc(-c2cc3ccccc3n2-c2ccccc2)cc1 | 78 to 80 °C
6 | CC1N=C2N(Cc3ccc(Cl)cc3)c3[nH]cnc3C(=O)N2C1C (stereo not given) | 252 to 254 °C
7 | NCCCN1CCC(c2noc3cc(F)ccc23)CC1 | 59 to 62 °C
8 | COc1cc(CCCC2OC(=O)NC2=O)ccc1OCc1csc(/C=C/c2ccccc2)n1 (stereo not given) | 202 to 203 °C
9 | CCOCCOc1ccccc1COc1ccc2c(c1)C=C(C(=O)O)CCS2(=O)=O | 134 to 136 °C
10 | CCC(=O)c1cc2c(=O)n(NS(C)(=O)=O)c(=O)[nH]c2cc1C(F)(F)F | 234 to 236 °C
11 | O=C(O)Cn1c(-c2cccc(Cl)c2)nc2cccnc21 | 214 to 216 °C
12 | Cc1cccc(NC(=O)NCC(=O)N(CC(=O)OC(C)(C)C)c2cccc(Cl)c2Cl)c1 | 135 °C
13 | COC(=O)NNC(=S)Cc1ccc(OC)cc1 | 94.5 to 95 °C
14 | O=S(=O)(c1ccc(Nc2nccc(Nc3ccc(F)cc3)n2)cc1)N(CCNCC(F)(F)F)C1CCN(Cc2ccccc2)CC1 | 137 to 138 °C
15 | COc1ccc(-c2ccc3cc(OC)ccc3c2)cc1 | 190 °C
16 | COC(=O)c1sc2ccc(OC)cc2c1OCC#N | 160 °C
17 | CCOCc1nc2c(N)nc3cc(-c4cccnc4)ccc3c2n1CC(C)(C)O | 197 to 199 °C
18 | CCn1c(=O)c(C#N)c(N)c2ccc(C)nc21 | > 300 °C
19 | CCCCCc1cc2cc(O)ccc2c(Oc2ccc(/C=C/C(=O)O)cc2)c1-c1ccccc1 | 110 to 113 °C
20 | CC(C)(C)[Si](C)(C)Oc1cccc(C(O)C(c2ccccc2)C2SCCCS2)c1 (stereo not given) | 75 to 76 °C
21 | CCOC(OCC)c1nc2sc(C)c(C)n2c(=O)c1C | 84 to 85 °C
22 | COC(=O)c1ncccc1SCc1ccc(OC)cc1 | 99 to 100 °C
23 | Cn1c(C(N)=O)c(-c2ccc(N)cc2)c2ccccc21 | 96 to 98 °C
24 | Cc1[nH]c2ccccc2c1CCC(=O)N1CCC(O)(Cc2ccccc2)CC1 | 117 to 119 °C
25 | CCC(CC)OC(=O)c1ccc(C(=O)NS(=O)(=O)c2cccc(C(=O)NCCc3ccccc3)c2)cn1 | 189 to 191 °C

Row | Compound | melting point
26 | N#Cc1nccn1Cc1cccs1 | 64 to 65 °C
27 | CCOc1ccccc1O[C@@H]1CN(CC)C[C@H]1O (relative stereo) | 73 to 75 °C
28 | CC(C1CC1)N1C(=O)c2cc([N+](=O)[O-])cnc2C1=O (stereo not given) | 96 to 99 °C
29 | Cc1ccc(-c2nc(C)nn2-c2ccc(S(N)(=O)=O)cc2)cc1 | 248 to 249 °C
30 | Cc1cc(=O)oc2cc(OS(N)(=O)=O)ccc12 | 161 to 164 °C
31 | CC(C)(C)c1ccc2c(c1)-c1c(c(C(=O)C(C#N)C(=O)Nc3ccccc3)nn1-c1ccccc1)CO2 (stereo not given) | 270 to 273 °C
32 | CCOC(=O)c1ccc(OCc2ccccc2)c(OC)c1 | 72 to 74 °C
33 | Cc1cccc2c1C=Cc1ccccc1C2(C)O (stereo not given) | 107 to 109 °C
34 | CC(=O)C1=CCC2C3CCC4=CC(=O)CCC4(C)C3(F)C(=O)CC12C (stereo not given) | 208 to 211 °C
35 | CC(=O)c1c(Cl)cccc1N1CCN(CCCCOc2ccc3c(n2)NC(=O)CC3)CC1 | 115 °C
36 | Cc1ccc(C2=NC(O)(C(F)(F)F)CN2c2ccc(S(C)(=O)=O)cc2)cc1Cl (stereo not given) | 201 °C
37 | CC(C)(Cc1ccc(Cl)cc1)C(C#N)C(=O)O (stereo not given) | 137 to 138 °C
38 | COc1ccc(CN(C)CCOc2ccc(NC(=O)c3cc(SC)cc4c(=O)c5ccccc5[nH]c34)cc2)cc1OC | 170 °C
39 | NC(=O)c1ccc(CCN2CCN(Cc3ccccc3Cl)CC2)cc1 | 170 to 173 °C
40 | CCN(c1nc2ccccc2[nH]1)C1CCN(CCc2ccccc2)CC1 | 205 °C
41 | CSC(=C[N+](=O)[O-])NCCCBr | 92 to 92.5 °C
42 | Nc1cc(C(F)(F)F)cc(N)c1Cl | 96 °C
43 | CC(CSS)C(=O)Nc1ncccc1C(=O)O (stereo not given) | 95 to 100 °C
44 | Cc1cc(-c2noc(C(F)(F)F)n2)cc(C)c1OCCCc1cncs1 | 95 to 97 °C
45 | COc1ccc2c(c1)c(Cc1nc(-c3ccc([N+](=O)[O-])cc3)cs1)c(C)n2Cc1ccc(Br)cc1 | 205 to 207 °C
46 | N#Cc1cc(N=Nc2cccc(Cl)c2)ccc1N | 255 °C
47 | CCOC(=O)/C=C/c1ccc(/C=C(\C)c2ccc3c(c2)C(C)(C)CCC3(C)C)cc1 | 126 to 127 °C
48 | CCNC(=O)c1ccccc1Nc1nc(Nc2cc3c(cc2OC)CC(=O)NCC3)ncc1Cl | > 250 °C
49 | CCOC(=O)C(C)(C)c1ccc(N[C@@H](CCC(N)=O)C(=O)O)cc1 | 147 to 148 °C
50 | Cc1nn(C)c(/C(OC(=O)C(C)(C)C)=C(\C#N)c2ccc(C(C)(C)C)cc2)c1C | 110 °C
